Measured values as given in patent publication US10214546B2, “Btk inhibitors” (MERCK SHARP & DOHME CORP., priority 2014, dated 2019).
Where two headings read alike, the source gives them in different places.

Columns and labels:
[1] = target: BTK enzyme (recombinant full-length BTK, hBTK) (Homo sapiens (Human), UniProt Q06187); assay: BTK enzymatic activity LANCE TR-FRET assay; assay type: biochemical; conditions: 50 pM hBTK, 25 μM ATP, 2 μM biotin-A5-peptide; compound range 1 μM to 0.017 nM; read-out: BTK binding IC50
Procedure: Btk Enzyme Activity Assay Methods
BTK enzymatic activity was determined with the LANCE (Lanthanide Chelate Excite) TR-FRET (Time-resolved fluorescence resonance energy transfer) assay. […] Phosphorylation reactions were allowed to proceed for 120 minutes. […] After 60 minutes incubation with detection reagents, reaction plates were read on a PerkinElmer EnVision plate reader using standard TR-FRET protocol. […] IC50 values were determined by 4 parameter robust fit of TR-FRET ratio values vs. (Log10) compound concentrations.

[2] = system: adenosine uptake into HeLa cells; assay: [3H]Adenosine uptake assay in HeLa cells; assay type: cell-based; conditions: [3H]adenosine accumulation in HeLa cells, compound range 10 μM to 0.032 nM, read-out: ADU inhibition IC50
Procedure: Compounds are also screened in an adenosine uptake functional cellular assay using the protocol described below:
[^3H]Adenosine Uptake Assay Methods
Adenosine uptake activity was determined by monitoring the accumulation of tritiated adenosine into HeLa cells (ATCC catalog # CCL-2) using a PMT-based radiometric detection instrument. In this assay, the potency (IC50) of each compound was determined from a ten point (1:3 serial dilution; final compound concentration range in assay from 10 µM to […]) titration curve using the following outlined procedure. To each well of a 96-well CytoStar-T scintillating microplate (Perkin Elmer Catalog # RPNQ0163), 25 000 HeLa cells in 100 µL of growth medium comprising: Minimum Essential Media (Life Technologies Catalog #11095-080)+10% (v/v) foetal bovine serum (FBS; Sigma Aldrich Catalog # F2442) was added. These cells were incubated overnight at 37° C. in a humidified atmosphere with 5% (v/v) CO2. After this time the growth medium was removed and replaced with 40 μL assay medium comprising: Hanks balanced salts solution (HBSS; Thermo Fisher Catalog # SH30268.01)+5% (v/v) FBS. Compound stock solutions in DMSO were diluted in assay medium to 2.5× final compound concentration maintaining a constant DMSO concentration of 0.25% (v/v). 40 μL of compound in assay medium was dispensed into individual wells of the Cytostar-T plates and the plates were incubated for 30 minutes under ambient laboratory conditions. Following this incubation, 20 μL of 500 nM [^3H] adenosine (American Radiolabeled Chemicals Inc. […] The amount of radiolabel accumulation was then determined using a Perkin Elmer Topcount NXT microplate reader. In brief, HeLa cells adhere to the bottom of the Cytostar-T plate, uptake of [^3H]adenosine into these cells brings the radiolabel into sufficient proximity to excite the scintillant in the base of the plates. These events are captured by single PMT, time-resolved coincidence counting. IC50 values were determined by 4 parameter robust fit of counts per second values vs. (Log10) compound concentrations.

Sequence of BTK enzyme (recombinant full-length BTK, hBTK) (Q06187 whole entry): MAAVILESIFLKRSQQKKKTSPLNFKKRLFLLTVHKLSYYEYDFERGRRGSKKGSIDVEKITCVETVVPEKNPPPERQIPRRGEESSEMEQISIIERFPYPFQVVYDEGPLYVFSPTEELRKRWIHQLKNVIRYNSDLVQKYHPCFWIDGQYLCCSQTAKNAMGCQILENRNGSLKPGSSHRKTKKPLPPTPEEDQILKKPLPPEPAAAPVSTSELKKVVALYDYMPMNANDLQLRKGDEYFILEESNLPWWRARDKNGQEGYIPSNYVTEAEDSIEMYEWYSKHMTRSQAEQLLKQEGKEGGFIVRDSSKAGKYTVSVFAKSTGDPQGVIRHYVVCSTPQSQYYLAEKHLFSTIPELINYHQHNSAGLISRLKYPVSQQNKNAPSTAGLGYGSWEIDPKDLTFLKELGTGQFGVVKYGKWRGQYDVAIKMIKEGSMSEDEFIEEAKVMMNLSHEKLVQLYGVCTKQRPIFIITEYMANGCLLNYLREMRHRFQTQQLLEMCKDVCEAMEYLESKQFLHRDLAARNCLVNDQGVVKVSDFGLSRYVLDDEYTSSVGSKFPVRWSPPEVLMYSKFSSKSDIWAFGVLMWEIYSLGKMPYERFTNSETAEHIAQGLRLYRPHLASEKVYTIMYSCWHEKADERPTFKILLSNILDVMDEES

SMILES	IC50 [1] [nM]	IC50 ([2]; Homo sapiens, HeLa) [nM]	IC50 [2] [nM]
Cc1cccc([C@](C)(O)c2ccc(-c3nc([C@@H]4CC[C@H]5CCC(=O)N5C4)n4ccnc(N)c34)cc2)c1 [Example 46, (6R,8aS)-6-(8-amino-1-(4-[(1R)-1-hydroxy-1-(3-methylphenyl)ethyl]phenyl}imidazo[1,5-a]pyrazin-3-yl)hexahydroindolizin-3(2H)-one]	0.23	3210	–
Cc1ccccc1[C@@](C)(O)c1ccc(-c2nc([C@@H]3CC[C@H]4CCC(=O)N4C3)n3ccnc(N)c23)cc1 [Example 47, (6R,8aS)-6-(8-amino-1-{4-[(1S)-1-hydroxy-1-(2-methylphenyl)ethyl]phenyl}imidazo[1,5-a]pyrazin-3-yl)hexahydroindolizin-3(2H)-one]	183	2040	–
Cc1ccccc1[C@](C)(O)c1ccc(-c2nc([C@@H]3CC[C@H]4CCC(=O)N4C3)n3ccnc(N)c23)cc1 [Example 48, (6R,8aS)-6-(8-amino-1-{4-[(1R)-1-hydroxy-1-(2-methylphenyl)ethyl]phenyl}imidazo[1,5-a]pyrazin-3-yl)hexahydroindolizin-3(2H)-one]	2.5	3300	–
COc1ccccc1[C@@](C)(O)c1ccc(-c2nc([C@@H]3CC[C@H]4CCC(=O)N4C3)n3ccnc(N)c23)cc1 [Example 49, (6R,8aS)-6-(8-amino-1-{4-[(1S)-1-hydroxy-1-(2-methoxyphenyl)ethyl]phenyl}imidazo[1,5-a]pyrazin-3-yl)hexahydroindolizin-3(2H)-one]	45.2	2950	–
COc1ccccc1[C@](C)(O)c1ccc(-c2nc([C@@H]3CC[C@H]4CCC(=O)N4C3)n3ccnc(N)c23)cc1 [Example 50, (6R,8aS)-6-(8-amino-1-{4-[(1R)-1-hydroxy-1-(2-methoxyphenyl)ethyl]phenyl}imidazo[1,5-a]pyrazin-3-yl)hexahydroindolizin-3(2H)-one]	243	1220	–
C[C@](O)(c1ccc(-c2nc([C@@H]3CC[C@H]4CCC(=O)N4C3)n3ccnc(N)c23)cc1)c1cccc(C2CC2)c1 [Example 51, (6R,8aS)-6-(8-amino-1-{4-[(1S)-1-(3-cyclopropylphenyl)-1-hydroxyethyl]phenyl}imidazo[1,5-a]pyrazin-3-yl)hexahydroindolizin-3(2H)-one]	5.9	569	–
C[C@@](O)(c1ccc(-c2nc([C@@H]3CC[C@H]4CCC(=O)N4C3)n3ccnc(N)c23)cc1)c1cccc(Cl)c1 [Example 52, (6R,8aS)-6-(8-amino-1-{4-[(1R)-1-(3-chlorophenyl)-1-hydroxyethyl]phenyl}imidazo[1,5-a]pyrazin-3-yl)hexahydroindolizin-3(2H)-one]	0.47	3830	–
Cc1cccc([C@@](C)(O)c2ccc(-c3nc([C@@H]4CC[C@H]5CCC(=O)N5C4)n4ccnc(N)c34)cc2)c1 [Example 53, (6R,8aS)-6-(8-amino-1-{4-[(1S)-1-hydroxy-1-(3-methylphenyl)ethyl]phenyl}imidazo[1,5-a]pyrazin-3-yl)hexahydroindolizin-3(2H)-one]	6.5	671	–
CC(O)(c1cccc(C(F)(F)F)c1)c1ccc(-c2nc([C@@H]3CC[C@H]4CCC(=O)N4C3)n3ccnc(N)c23)cc1F (stereo partly drawn) [Example 54, (6R,8aS)-6-[8-amino-1-(3-fluoro-4-{1-hydroxy-1-[3-(trifluoromethyl)phenyl]ethyl}phenyl)imidazo [1,5-a]pyrazin-3-yl]hexahydroindolizin-3(2H)-one]	1000	–	473
CCC(O)(c1ccc(-c2nc([C@@H]3CC[C@H]4CCC(=O)N4C3)n3ccnc(N)c23)cc1)c1cccc(C(F)(F)F)c1 (stereo partly drawn) [Example 55, (6R,8aS)-6-[8-amino-1-(4-{1-hydroxy-1-[3-(trifluoromethyl)phenyl]propyl}phenyl)imidazo [1,5-a]pyrazin-3-yl]hexahydroindolizin-3(2H)-one]	1000	–	400
C[C@](O)(c1ccc(-c2nc([C@@H]3CC[C@H]4CCC(=O)N4C3)n3ccnc(N)c23)cc1)c1cccc(OC(F)(F)F)c1 [Example 56, (6R,8aS)-6-[8-amino-1-(4-{(1S)-1-hydroxy-1-[3-(trifluoromethoxy)phenyl]ethyl}phenyl)imidazo [1,5-a]pyrazin-3-yl]hexahydroindolizin-3(2H)-one]	583	901	–
C[C@@](O)(c1ccc(-c2nc([C@@H]3CC[C@H]4CCC(=O)N4C3)n3ccnc(N)c23)cc1)c1cccc(OC(F)(F)F)c1 [Example 57, (6R,8aS)-6-[8-amino-1-(4-{(1R)-1-hydroxy-1-[3-(trifluoromethoxy)phenyl]ethyl}phenyl)imidazo [1,5-a]pyrazin-3-yl]hexahydroindolizin-3(2H)-one]	0.88	3320	–
C[C@](O)(c1ccc(-c2nc([C@@H]3CC[C@H]4CCC(=O)N4C3)n3ccnc(N)c23)cc1)c1cccc(-c2ccccc2)c1 [Example 58, (6R,8aS)-6-(8-amino-1-{4-[(1S)-1-biphenyl-3-yl-1-hydroxyethyl]phenyl}imidazo[1,5-a]pyrazin-3-yl)hexahydroindolizin-3(2H)-one]	63.1	450	–
C[C@@](O)(c1ccc(-c2nc([C@@H]3CC[C@H]4CCC(=O)N4C3)n3ccnc(N)c23)cc1)c1cccc(-c2ccccc2)c1 [Example 59, (6R,8aS)-6-(8-amino-1-{4-[(1R)-1-biphenyl-3-yl-1-hydroxyethyl]phenyl}imidazo[1,5-a]pyrazin-3-yl)hexahydroindolizin-3(2H)-one]	0.93	1250	–
CC(O)(c1cccc(C(F)(F)F)c1)c1ccc(-c2nc([C@@H]3CC[C@H]4CCC(=O)N4C3)n3ccnc(N)c23)cc1F (stereo partly drawn) [Example 60, (6R,8aS)-6-[8-amino-1-(3-fluoro-4-{1-hydroxy-1-[3-(trifluoromethyl)phenyl]ethyl}phenyl)imidazo [1,5-a]pyrazin-3-yl]hexahydroindolizin-3(2H)-one]	36.7	–	3360
CCC(O)(c1ccc(-c2nc([C@@H]3CC[C@H]4CCC(=O)N4C3)n3ccnc(N)c23)cc1)c1cccc(C(F)(F)F)c1 (stereo partly drawn) [Example 61, (6R,8aS)-6-[8-amino-1-(4-{1-hydroxy-1-[3-(trifluoromethyl)phenyl]propyl}phenyl)imidazo [1,5-a]pyrazin-3-yl]hexahydroindolizin-3(2H)-one]	72	–	1710
C[C@@](O)(c1ccc(-c2nc([C@@H]3CC[C@H]4CCCN4C3)n3ccnc(N)c23)cc1)c1cccc(C(F)(F)F)c1 [Example 62, (1R)-1-(4-{8-amino-3-[(6R,8aS)-octahydroindolizin-6-yl]imidazo[1,5-a]pyrazin-1-yl}phenyl)-1-[3-(trifluoromethyl)phenyl] ethanol]	19.7	2300	–
C[C@](O)(c1ccc(-c2nc([C@@H]3CC[C@H]4CCCN4C3)n3ccnc(N)c23)cc1)c1cccc(C(F)(F)F)c1 [Example 63, (1S)-1-(4-{8-amino-3-[(6R,8aS)-octahydroindolizin-6-yl]imidazo[1,5-a]pyrazin-1-yl}phenyl)-1-[3-(trifluoromethyl)phenyl] ethanol]	1000	1470	–
COc1cc(-c2nc([C@@H]3CC[C@H]4CCC(=O)N4C3)n3ccnc(N)c23)ccc1C(C)(O)c1cccc(C(F)(F)F)c1 (stereo partly drawn) [Example 64, (6R,8aS)-6-[8-amino-1-(4-{1-hydroxy-1-[3-(trifluoromethyl)phenyl]ethyl}-3-methoxyphenyl)imidao [1,5-a]pyrazin-3-yl]hexahydroindolizin-3(2H)-one]	59.1	–	936
